Assay results: patent publication US9144573B2, “Prostaglandin transporter inhibitors” (Albert Einstein College of Medicine of Yeshiva University, priority 2006, dated 2015)
Entries after “also recorded” stand apart in the source; their conditions may differ.

Test: Chronic oral administration in drinking water: blood PGE2, urine PGE2, bleeding time
Type: in vivo, mice
Conditions: 2 mM in drinking water, 16 days
Description: Regular water, vehicle (2% DMSO and 2% cremophor) in drinking water, or 2 mM T26A in drinking water was administered to 17 week old mice for 16 days. At the end of the experiment, we withdrew blood by cardiac puncture. PGE2 in blood samples was measured by using PGE2 EIA kit from Caymanchem.
The mice described above pertaining to FIG. 17 were placed in metabolic cages. Six days after they adjusted to the caged condition (on regular diet and water) regular drinking water, vehicle (2% DMSO and 2% cremophor) in drinking water, or 2 mM T26A in drinking water was administered for 16 days. Urine was collected daily. PGE2 in urine samples was measured using PGE2 EIA kit from Caymanchem. […] This is also consistent with the FIG. 8 model. Inhibiting PGE2 transport into the cell reduces its intracellular degradation such that more is secreted without intracellular degradation.
At the end of the experiment shown in FIGS. 17-18, bleeding time was measured using the tail cut method. About 1 cm tails of restrained mice were cut off; the diameter of the cut was kept the same for all mice. The emerging blood was blotted every 15 seconds without touching the wound. Bleeding time was measured as the point at which bleeding had stopped for 1 minute. Results are shown graphically in FIG. 19. […] It is believed that the blockade of endothelial PCT allows intravascular accumulation of PGE2 or prostacyclin, either of which can inhibit platelet aggregation.

Compound: [N-]=[N+]=NCCOCCOCCNC(=O)c1ccc(Nc2nc(NCCOCCOCCNC(=O)c3ccccc3)nc(Nc3ccc(O)cc3)n2)cc1 [T26A]
- plasma PGE2 levels (mice): increased plasma PGE2 levels four-fold
- urinary excretion of endogenous PGE2 (mice): increased urinary excretion of endogenous PGE2; also recorded: increases PGE2 excretion in urine
- bleeding time (tail cut method): increases bleeding time
